From ChEMBL document CHEMBL1255241, “Novel characteristics of community-acquired methicillin-resistant Staphylococcus aureus strains belonging to multilocus sequence type 59 in Taiwan” (2008)
Converted amounts (≈) assume the structure as drawn.

Tests used:
Type in all cases: functional
Staphylococcus aureus [1] = experiment: Antibacterial activity against group 1-v1 PVL+ community-acquired methicillin-resistant Staphylococcus aureus ST 59 expressing SCCmec type V gene by agar dilution method
Staphylococcus aureus [2] = experiment: Antibacterial activity against group 2 PVL+ community-acquired methicillin-resistant Staphylococcus aureus ST 30 expressing SCCmec type IVc gene by agar dilution method
Staphylococcus aureus [3] = experiment: Antibacterial activity against group 1-v2 PVL+ community-acquired methicillin-resistant Staphylococcus aureus ST 59 expressing SCCmec type X gene by agar dilution method
Staphylococcus aureus [4] = experiment: Antibacterial activity against group 4-v2 PVL negative community-acquired methicillin-resistant Staphylococcus aureus ST 59 expressing SCCmec type IVx gene by agar dilution method
Staphylococcus aureus [5] = experiment: Antibacterial activity against group 3 PVL negative community-acquired methicillin-resistant Staphylococcus aureus ST 239 expressing SCCmec type III gene by agar dilution method
Staphylococcus aureus [6] = experiment: Antibacterial activity against group 1 PVL+ community-acquired methicillin-resistant Staphylococcus aureus ST 59 expressing SCCmec type VT gene by agar dilution method
Staphylococcus aureus [7] = experiment: Antibacterial activity against group 1-v3 PVL+ community-acquired methicillin-resistant Staphylococcus aureus ST 59 expressing SCCmec type V gene by agar dilution method
Staphylococcus aureus [8] = experiment: Antibacterial activity against group 6 PVL negative community-acquired methicillin-resistant Staphylococcus aureus ST 8 expressing SCCmec type IVx gene by agar dilution method
Staphylococcus aureus [9] = experiment: Antibacterial activity against group 4 PVL negative community-acquired methicillin-resistant Staphylococcus aureus ST 59 expressing SCCmec type IVx gene by agar dilution method
Staphylococcus aureus [10] = experiment: Antibacterial activity against group 4-v1 PVL negative community-acquired methicillin-resistant Staphylococcus aureus ST 59 expressing SCCmec type X gene by agar dilution method
Staphylococcus aureus [11] = experiment: Antibacterial activity against group 4-v3 PVL negative community-acquired methicillin-resistant Staphylococcus aureus ST 59 expressing SCCmec type IVc gene by agar dilution method
Staphylococcus aureus [12] = experiment: Antibacterial activity against group 1-v4 PVL+ community-acquired methicillin-resistant Staphylococcus aureus ST 59 expressing SCCmec type VT gene by agar dilution method
Staphylococcus aureus [13] = experiment: Antibacterial activity against group 5 PVL negative community-acquired methicillin-resistant Staphylococcus aureus ST 5 expressing SCCmec type II gene by agar dilution method
Staphylococcus aureus [14] = experiment: Antibacterial activity against group 3-v1 PVL negative community-acquired methicillin-resistant Staphylococcus aureus ST 900 expressing SCCmec type III gene by agar dilution method

Molecule `Cc1onc(-c2ccccc2)c1C(=O)N[C@@H]1C(=O)N2[C@@H]1SC(C)(C)[C@@H]2C(=O)O` [OXACILLIN] has an MIC (Staphylococcus aureus [1]) of 64 µg/mL (≈ 159 µM), an MIC (Staphylococcus aureus [2]) of 32 µg/mL (≈ 79.7 µM) and an MIC (Staphylococcus aureus [3]) of 64 µg/mL (≈ 159 µM). For the same molecule, the MIC (Staphylococcus aureus [4]) was 64 µg/mL (≈ 159 µM), the MIC (Staphylococcus aureus [5]) was no less than 128 µg/mL and the MIC (Staphylococcus aureus [6]) was 32 µg/mL (≈ 79.7 µM). It also gave an MIC (Staphylococcus aureus [7]) of 4 µg/mL (≈ 9.96 µM), an MIC (Staphylococcus aureus [8]) of 32 µg/mL (≈ 79.7 µM) and an MIC (Staphylococcus aureus [9]) of no less than 128 µg/mL. It also gave an MIC (Staphylococcus aureus [10]) of 32 µg/mL (≈ 79.7 µM), an MIC (Staphylococcus aureus [11]) of 32 µg/mL (≈ 79.7 µM) and an MIC (Staphylococcus aureus [12]) of 4 µg/mL (≈ 9.96 µM). For the same molecule, the MIC (Staphylococcus aureus [13]) was no less than 128 µg/mL and the MIC (Staphylococcus aureus [14]) was no less than 128 µg/mL.
